In patent US9326972B2, “Use of phenylmethimazoles, methimazole derivatives, and tautomeric cyclic thiones for the treatment of autoimmune/inflammatory diseases associated with toll-like receptor overexpression” (Ohio University, priority 2004, dated 2016):

Assays:
[1] = Solubility and storage stability of C10 solutions; assay type: physicochemical
Source text: In the studies described in Table 5, C10 was formulated in DMSO and administered i.p. DMSO was used due to the low solubility of C10 in aqueous environments but can have well documented independent effects (M. S. Ivanovic, et al., Toxicology Letters, 147:153-159 (2004))]. […] To circumvent these issues, we used a proprietary cyclodextrin (CD) excipient that is approved by the FDA for use in humans to make an aqueous formulation of C10. […] In a test using LPS-induced toxic shock, oral excipient-solubilized C10, stored in diluted form at 4° C. for 8 weeks, was as effective in preventing death as was freshly made C10 i.p. in DMSO at the same 1 mg/kg dose.

[2] = system: human aortic endothelial cells (HAEC); conditions: cited from earlier work
[3] = system: MHC gene expression; conditions: cited from earlier work
[4] = system: NF-κB; assay: NF-κB Luc reporter gene in FRTL-5 thyrocytes; assay type: cell-based, rat; conditions: for NF-κB Luc Relative Luciferase Activity % of Control (±15%), +C10: 6 hours
Protocol: Poly (I:C) (the dsRNA ligand commonly used as a test compound) activates the TLR3 mediated NF-κ β/Map kinase signal pathway in FRTL-5 thyrocytes. FRTL-5 cells were transiently transfected with 100 ng of luciferase reporter pNF-κB Luc and 2 ng of internal control phRL-Tk. After 36 h, cells were incubated with 100 μg/ml poly (I:C) or endotoxin-free E. coli DNA for 6 h. Measurements were made with the Dual Luciferase Assay System (Promega). Poly (I:C) increased TLR3 mediated NF-κB mediated luciferase activity (gene expression) 6 fold; dsDNA had no effect. Further support came from electrophoretic mobility shift analyses (EMSA). When FRTL-5 thyrocytes were incubated with 100 μg/ml poly (I:C), IL-1β, TNF-α or TPA, cells lysed after 1 h, and nuclear translocation of NF-κB measured. The poly (I:C) induced p50/p65 complex formation as measured by the presence of a specific new protein/DNA complex and its inhibition by anti-p50 and p65 antibodies, but not by anti-p52, c-rel and Rel B antibodies; the complex was also supershifted by anti-p50. […] Additionally, when FRTL-5 cells were co-transfected with pCMV-BD-Elk 1 and pFR-luc, then incubated with 100 μg/ml poly (I:C) or IL-1β for 6 hrs, ELK1 transactivation was increased 2-fold by both Poly (I:C) and IL-1β when measured with the Dual Luciferase Assay System (Promega). NF-κB/MAP Kinase signals evoked by TLR3 binding dsRNA are only one portion of TLR3 functional expression.
Cells were co-transfected with ISRE-Luc and pRLTk-Int and then treated without (none) or with Poly I:C (100 μg/ml), LPS (100 ng/ml), IL-1β (10 ng/ml) TNF-α (25 ng/ml), IFN-β (100 U/ml) or IFN-γ (1000 U/ml) in the presence of DMSO (−) or C10 for 6 hours. Data were obtained using the Dual Luciferase Assay system. The effect on the ISRE element is not duplicated by an NF-κB reporter plasmid despite the similarity of the two elements: ([…])5 (SEQ ID NO:3) vs. ([…])5 (SEQ ID NO:4), respectively. Data are representative of multiple experiments.
Plasmids for Reporter Gene Assays. Human IRF-3 was amplified from human cDNA and cloned into pCR 2.1 by the TOPO/TA (Invitrogen, Carlsbad, Calif.) cloning method, and then sequenced. IRF-3 was then excised by EcoRI digestion and subcloned into pCMV-BD (Stratagene, La Jolla, Calif.) for use in transactivation assays. To construct IFN-β-luc the human IFN-β promoter sequence was amplified from human genomic DNA (Clontech, Palo Alto, Calif.)) using Ex Taq™ Polymerase (Takara, Madison, Wis.). The PCR fragment contained human IFN-β promoter sequence from −125 to +34 relative to the transcription start site (+1) and incorporated KpnI and XhoI restriction sites at the 5′ and 3′ ends, respectively. The primers were as follows: hIFN-β (−125) KpnI (5′-[…]-3′) (SEQ ID NO:9) and hIFN-β (+34) XhoI (5′-[…]-3′). (SEQ ID NO: 10) The fragment was digested with KpnI and XhoI then ligated into a similarly digested pGL3 Basic (Promega, Madison, Wis.) vector. The human MyD88 wild and dominant negative expression vectors were kindly donated by Dr. P. E. Auron. pFR-luc (5×Gal4 DNA binding domains and minimal TATA box), ISRE-Luc, NF-κB-luc and the Elk1 trans-Reporting System were purchased from Stratagene. pRL TK-Int was purchased from Promega.
Transient Expression Analysis. A DEAE procedure was used to transfect promoter-luciferase gene constructs and expression plasmids into FRTL-5 cells. Briefly, FRTL-5 cells were grown in 24-well plates to about 70% confluence, washed with 0.5 ml of serum-free culture medium (6H0 medium), then exposed to 125 μl of premade plasmid-DEAE mixture per well for 15 min at room temperature. The plasmid-DEAE mixture was prepared by incubating 100 ng of plasmid DNA, unless otherwise noted in individual experiments, with 3.125 μl of DEAE-Dextran (10 mg/ml) (Promega, Madison Wis.). FRTL-5 cells were incubated with this mixture for 2 hr at 37° C. in a CO2 incubator, before 2 ml of 6H5 medium was added. […]

In the case of `Cn1c(-c2ccccc2)cnc1S` [Compound C10, 5-Phenylmethimazole], the “solubility in aqueous environments” value [1] is reported as “low”, the “stability of C10 solubilized in DMSO and diluted to a working concentration” value [1] is reported as “not stable for prolonged periods of time” and the “activity of C10 diluted in DMSO and stored in diluted form” value ([1]; stored at either 4° C. or −70° C., in vitro or in vivo) is reported as “inactive”. The “cytokine-induced HAEC expression of VCAM-1 (protein and mRNA)” value [2] was “strongly inhibits”, the “monocytic cell adhesion to cytokine inflamed HAEC under in vitro flow conditions” value [2] was “inhibits” and the E-selectin expression ([2]; cytokine-induced, HAEC) was “modest effect”. For the same compound, the ICAM-1 expression ([2]; cytokine-induced, HAEC) was “very little effect”, the “potency in suppressing MHC gene expression relative to MMI” value [3] was 50-100 fold and the “NF-κB Luc Relative Luciferase Activity % of Control (±15%), +C10” value (from here on “NF-κB Luc Relative Luciferase Activity %”) ([4]; FRTL-5, Ligand IFN-β 100 U/ml) was 150 % of Control. For the same compound, the “NF-κB Luc Relative Luciferase Activity %” value ([4]; FRTL-5, Ligand IFN-γ 1000 U/ml) was 180 % of Control, the “NF-κB Luc Relative Luciferase Activity %” value ([4]; FRTL-5, Ligand IL-1β 10 ng/ml) was 350 % of Control and the “NF-κB Luc Relative Luciferase Activity %” value ([4]; FRTL-5, Ligand LPS 100 ng/ml) was 250 % of Control. For the same compound, the “NF-κB Luc Relative Luciferase Activity %” value ([4]; FRTL-5, Ligand None) was 100 % of Control, the “NF-κB Luc Relative Luciferase Activity %” value ([4]; FRTL-5, Ligand Poly (I:C) 100 μg/ml) was 300 % of Control and the “NF-κB Luc Relative Luciferase Activity %” value ([4]; FRTL-5, Ligand TNF-α 25 ng/ml) was 225 % of Control. For the same compound, the “effect on Poly (I:C)-increased NF-κB-luciferase activity” value ([4]; FRTL-5, 0.5 mM C10 or 5 mM MMI) was “minimal effect”.
